The values that follow are results of earlier work, collected in patent US20240325452A1, “METHODS AND COMPOSITIONS FOR DREADD-ACTIVATABLE CELLS FOR NEURAL REPAIR” (Drexel University, priority 2023, published 2024).

Structures are written as SMILES.

For series [1] the following is noted: it has been reported.
A further series concerns the target hM3Dq (Homo sapiens, UniProt P20309, A239G/Y149C). Particulars: hM3 with two point mutations.
The subject of another series is hM3Dq and hM4Di DREADDs. Particulars: marketed ligands, active in vivo.

hM3Dq, sequence (P20309 whole entry Y149C/A239G): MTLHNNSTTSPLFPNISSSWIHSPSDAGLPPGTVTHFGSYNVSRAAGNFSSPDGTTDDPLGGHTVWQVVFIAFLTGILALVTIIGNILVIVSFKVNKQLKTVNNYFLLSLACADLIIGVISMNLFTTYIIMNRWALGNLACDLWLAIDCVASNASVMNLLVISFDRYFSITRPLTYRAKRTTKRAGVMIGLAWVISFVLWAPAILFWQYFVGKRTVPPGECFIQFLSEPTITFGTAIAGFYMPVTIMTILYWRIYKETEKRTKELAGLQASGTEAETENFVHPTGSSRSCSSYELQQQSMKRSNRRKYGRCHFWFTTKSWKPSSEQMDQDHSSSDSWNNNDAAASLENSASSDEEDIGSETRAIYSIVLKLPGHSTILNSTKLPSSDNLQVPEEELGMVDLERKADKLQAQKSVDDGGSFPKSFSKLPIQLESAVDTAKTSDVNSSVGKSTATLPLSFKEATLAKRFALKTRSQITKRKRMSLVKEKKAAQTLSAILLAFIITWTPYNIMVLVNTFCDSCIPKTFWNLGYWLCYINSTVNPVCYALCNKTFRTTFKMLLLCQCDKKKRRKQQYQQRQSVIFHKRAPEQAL

Regarding `c1ccc2c(c1)N=C(N1CCNCC1)c1ccccc1N2` [Compound 21], in series [1], the “bioavailability, pharmacokinetic properties and brain penetrability” value is on record as “excellent”; the “reverse metabolism to clozapine” value is “does not undergo reverse metabolism to clozapine”. `C[N+]1([O-])CCN(C2=Nc3cc(Cl)ccc3Nc3ccccc32)CC1` [CNO, clozapine N-oxide]: the “potency at mutant receptor” value at hM3Dq is “nanomolar potency”.

`CCN1CCN(C2=Nc3cc(Cl)ccc3Nc3c(F)cccc32)CC1` [JHU37160]: the potency and affinity result in the series on hM3Dq and hM4Di DREADDs was “high potency and affinity”.
